Data from patent US10399932B2, “Inhibitors of indoleamine-2,3-dioxygenase for the treatment of cancer” (BRISTOL-MYERS SQUIBB COMPANY, priority 2015, dated 2019).

Target: human IDO1 (Homo sapiens, UniProt P14902)
Assay: Assessment of human IDO-1 inhibitory activity in HEK cells (human IDO1/HEK293 cells, Ehrlich reagent, absorbance at 490 nm)
Type: cell-based
Design: expressed in transfected cells
Details: In Vitro Potency in the HEK Human IDO-1 Cellular Assay
Experimental: Exemplary compounds were tested for inhibition of IDO activity.
HEK293 cells were transfected with a pCDNA-based mammalian expression vector harboring human IDO1 cDNA (NM 002164.2) by electroporation. They were cultured in medium (DMEM with 10% FBS) containing 1 mg/ml G418 for two weeks. Clones of HEK293 cells that stably expressed human IDO1 protein were selected and expanded for IDO inhibition assay.
The human IDO1/HEK293 cells were seeded at 10,000 cells per 50 μL per well with RPMI/phenol red free media contains 10% FBS in a 384-well black wall clear bottom tissue culture plate (Matrix Technologies LLC) 100 nL of certain concentration of compound was then added to each well using ECHO liquid handling systems. The cells were incubated for 20 hours in 37° C. incubator with 5% CO2.
The compound treatments were stopped by adding trichloroacetic acid (Sigma-Aldrich) to a final concentration at 0.2%. The cell plate was further incubated at 50° C. for 30 minute. The equal volume supernatant (20 μL) and 0.2% (w/v) Ehrlich reagent (4-dimethylaminobenzaldehyde, Sigma-Aldrich) in glacial acetic acid were mixed in a new clear bottom 384-well plate. This plate was then incubated at room temperature for 30 minute. The absorbance at 490 nm was measured on Envision plate reader.
Compound IC50 values were calculated using the counts of 500 nM of a reference standard treatment as one hundred percent inhibition, and counts of no compound but DMSO treatment as zero percent inhibition.

Chain of human IDO1 (P14902 whole entry): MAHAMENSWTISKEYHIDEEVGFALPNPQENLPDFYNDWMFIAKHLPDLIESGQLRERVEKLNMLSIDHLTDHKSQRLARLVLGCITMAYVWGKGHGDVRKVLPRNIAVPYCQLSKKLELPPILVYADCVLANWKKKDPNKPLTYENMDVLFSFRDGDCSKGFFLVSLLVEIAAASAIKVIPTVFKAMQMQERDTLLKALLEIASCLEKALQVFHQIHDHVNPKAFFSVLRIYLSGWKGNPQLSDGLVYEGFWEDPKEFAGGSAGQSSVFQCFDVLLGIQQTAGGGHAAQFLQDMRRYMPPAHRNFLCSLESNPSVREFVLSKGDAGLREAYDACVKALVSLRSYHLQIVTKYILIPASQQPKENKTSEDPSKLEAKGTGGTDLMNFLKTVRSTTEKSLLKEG

**Q.** `CCC(CC(=O)O)c1ccc(N2CCC[C@H]2C(C)(C)O)c(NC(=O)Nc2ccc(F)cc2)c1` (single isomer, unassigned) [Example 829] was tested. Which IC50 did it give?
**A.** > 50 nM

**Q.** With `CCC(CC(=O)O)c1ccc(N2CCC[C@@H]2C(C)(C)O)c(NC(=O)Nc2ccc(Cl)cc2F)c1` (single isomer, unassigned) [Example 776] as the compound, how does the IC50 read?
**A.** > 50 nM

**Q.** For `CC(C)CN(c1ccc(C(C)CC(=O)O)cc1NC(=O)Nc1cncnc1)C1CCOCC1` (single isomer, unassigned) [Example 964, 3-(4-(isobutyl(tetrahydro-2H-pyran-4-yl)amino)-3-(3-(pyrimidin-5-yl)ureido)phenyl) butanoic acid], which IC50 is on record?
**A.** > 50 nM

**Q.** `CCC(CC(=O)O)c1cc(F)c(N(CC(C)C)CC(C)C)c(Nc2ccc(OCC(F)(F)F)cc2)c1` (single isomer, unassigned) [Example 114, 3-(4-(diisobutylamino)-3-fluoro-5-((4-(2,2,2-trifluoroethoxy)phenyl)amino)phenyl)pentanoic acid] was tested. Which IC50 did it give?
**A.** > 50 nM

**Q.** How did the IC50 turn out when `CCC(CC(=O)O)c1ccc(N2CCC[C@@H]2C(C)(C)O)c(NC(=O)Nc2ccc(C)cc2)c1` (single isomer, unassigned) [Example 779] was run?
**A.** > 50 nM

**Q.** `Cc1nc2ccc(Nc3cc(C(CC(=O)O)c4ccccc4)cc(F)c3N(CC(C)C)CC(C)C)cc2s1` (single isomer, unassigned) [Example 132, 3-(4-(diisobutylamino)-3-fluoro-5-((2-methylbenzo[d]thiazol-6-yl)amino)phenyl)-3-phenylpropanoic acid] was tested. Which IC50 did it give?
**A.** > 50 nM

**Q.** How did the IC50 turn out when `CCC(CC(=O)O)c1cc(F)c(N(CC(C)C)C2CCCCC2)c(NC(=O)Nc2ccc(C)cc2)c1` (racemic) [Example 1091] was run?
**A.** < 5 nM

**Q.** `COCC(CC(=O)O)c1ccc(N(CC(C)C)C2CCCCC2)c(NC(=O)Cc2ccc(C)cc2)c1` (single isomer, unassigned) [Example 1240, 3-(4-(Cyclohexyl(isobutyl)amino)-3-(2-(p-tolyl)acetamido)phenyl)-4-methoxybutanoic acid] was tested. Which IC50 did it give?
**A.** < 50 nM

**Q.** Which IC50 does the source give for `CCN(c1ccc(C(CC(=O)O)c2ccccc2)cc1NC(=O)Nc1ccc(OC)cc1F)C1CCOCC1` (single isomer, unassigned) [Example 596, 3-(4-(ethyl(tetrahydro-2H-pyran-4-yl)amino)-3-(3-(2-fluoro-4-methoxyphenyl)ureido)phenyl)-3-phenylpropanoic acid] here?
**A.** > 50 nM

**Q.** `CCC(CC(=O)O)c1cc(NC(=O)Nc2cc(C)no2)c(N(CC(C)C)C2CCCCC2)cc1F` (single isomer, unassigned) [Example 1115, 3-(4-(Cyclohexyl(isobutyl)amino)-2-fluoro-5-(3-(3-methylisoxazol-5-yl)ureido)phenyl)pentanoic acid] was tested. Which IC50 did it give?
**A.** < 5 nM

**Q.** How did the IC50 turn out when `CCC(CC(=O)O)c1ccc(N2CCC[C@H]2C(C)(C)O)c(Nc2cnc(OCC3CC3)nc2)c1` (single isomer, unassigned) [Example 838] was run?
**A.** > 50 nM

**Q.** `Cc1cc(NC(=O)Nc2cc(C(CC(=O)O)C3CC3)ccc2N(CC(C)C)C2CCOCC2)no1` (single isomer, unassigned) [Example 1201 Enantiomer 2, 3-Cyclopropyl-3-(4-(isobutyl(tetrahydro-2H-pyran-4-yl)amino)-3-(3-(5-methylisoxazol-3-yl)ureido)phenyl)propanoic acid] was tested. Which IC50 did it give?
**A.** < 50 nM

**Q.** How did the IC50 turn out when `CCOc1ccc(NC(=O)Nc2cc(C(CC)CC(=O)O)c(F)cc2N(CC(C)C)CC(C)C)c(F)c1` (single isomer, unassigned) [Example 1139, 3-(4-(Diisobutylamino)-5-(3-(4-ethoxy-2-fluorophenyl)ureido)-2-fluorophenyl) pentanoic acid] was run?
**A.** < 5 nM

**Q.** `CCc1ccc(Nc2cc([C@@H](CC)CC(=O)O)ccc2N(CC(C)(C)O)C2CCCCC2)cc1` (single isomer, unassigned) [Example 228] was tested. Which IC50 did it give?
**A.** < 5 nM

**Q.** With `CCOc1ccc(CC(=O)Nc2cc(C(CC(=O)O)C3CC3)ccc2N(CC(C)C)C2CCCCC2)cc1` (single isomer, unassigned) [Example 1250, 3-(4-(Cyclohexyl(isobutyl)amino)-3-(2-(4-ethoxyphenyl)acetamido)phenyl)-3-cyclopropylpropanoic acid] as the compound, how does the IC50 read?
**A.** < 5 nM

**Q.** With `CCC(CC(=O)O)c1cc(NC(=O)Nc2ccc3c(c2)OCO3)c(N(CC(C)C)C2CCCCC2)cc1F` (single isomer, unassigned) [Example 1112, 3-(5-(3-(Benzo[d][1,3]dioxol-5-yl)ureido)-4-(cyclohexyl(isobutyl)amino)-2-fluorophenyl)pentanoic acid] as the compound, how does the IC50 read?
**A.** < 5 nM

**Q.** How did the IC50 turn out when `CCC(CC(=O)O)c1ccc(N(CC(C)C)C2CCCCC2)c(Nc2ccc(Cl)c(OCC(F)F)c2)c1` (single isomer, unassigned) [Example 650, 3-(3-((4-chloro-3-(2,2-difluoroethoxy)phenyl)amino)-4-(cyclohexyl(isobutyl)amino)phenyl)pentanoic acid] was run?
**A.** < 5 nM

**Q.** With `CCC(CC(=O)O)c1ccc(N2CCOC[C@H]2C(C)C)c(NC(=O)Nc2ccc(C)cc2)c1` (single isomer, unassigned) [Example 907] as the compound, how does the IC50 read?
**A.** > 50 nM

**Q.** With `CCc1ccc(Nc2cc(C(CC)CC(=O)O)cc(F)c2N(CC(C)C)CC(C)C)cc1` (single isomer, unassigned) [Example 112, 3-(4-(diisobutylamino)-3-((4-ethylphenyl)amino)-5-fluorophenyl)pentanoic acid] as the compound, how does the IC50 read?
**A.** < 50 nM

**Q.** `CCOc1ccc(Nc2cc([C@H](CC)CC(=O)O)ccc2N(CC)C2CCOCC2)cc1` (single isomer, unassigned) [Example 514] was tested. Which IC50 did it give?
**A.** < 5 nM

**Q.** Which IC50 does the source give for `CCOc1ccc(NC(=O)Nc2cc(C(CC)CC(=O)O)c(F)cc2N(CC(C)C)C2CCCCC2)cc1` (single isomer, unassigned) [Example 1109, 3-(4-(Cyclohexyl(isobutyl)amino)-5-(3-(4-ethoxyphenyl)ureido)-2-fluorophenyl) pentanoic acid] here?
**A.** < 5 nM

**Q.** For `CCOc1ccc(NC(=O)Nc2cc(C(COC)CC(=O)O)ccc2N(CC(C)C)C2CCOCC2)cc1` (single isomer, unassigned) [Example 1219, 3-(3-(3-(4-Ethoxyphenyl)ureido)-4-(isobutyl(tetrahydro-2H-pyran-4-yl)amino)phenyl)-4-methoxybutanoic acid], which IC50 is on record?
**A.** > 50 nM

**Q.** How did the IC50 turn out when `CCC(CC(=O)O)c1ccc(N2CCC[C@H]2C(C)(C)O)c(Nc2ccc(OCC3CC3)cc2)c1` (single isomer, unassigned) [Example 834] was run?
**A.** > 50 nM

**Q.** How did the IC50 turn out when `CCC(CC(=O)O)c1cc(F)c(N(CC(C)C)CC(C)C)c(Nc2ccc(Cl)cc2)c1` (single isomer, unassigned) [Example 115, 3-(3-((4-chlorophenyl)amino)-4-(diisobutylamino)-5-fluorophenyl)pentanoic acid] was run?
**A.** < 5 nM

**Q.** For `CCOc1ccc(CC(=O)Nc2cc(C(COC)CC(=O)O)ccc2N(CC(C)C)C2CCCCC2)cc1` (single isomer, unassigned) [Example 1242, 3-(4-(Cyclohexyl(isobutyl)amino)-3-(2-(4-ethoxyphenyl)acetamido)phenyl)-4-methoxybutanoic acid], which IC50 is on record?
**A.** < 50 nM

**Q.** For `COCC(CC(=O)O)c1cc(F)c(N(CC(C)C)C2CCCCC2)c(NC(=O)Cc2ccc(C)cc2)c1` (single isomer, unassigned) [Example 1174, 3-(4-(cyclohexyl(isobutyl)amino)-3-fluoro-5-(2-(p-tolyl)acetamido)phenyl)-4-methoxybutanoic acid], which IC50 is on record?
**A.** < 50 nM

**Q.** `COc1ncc(Nc2cc(C(C)CC(=O)O)ccc2N2CCC[C@H]2C(C)(C)O)cn1` (single isomer, unassigned) [Example 805] was tested. Which IC50 did it give?
**A.** > 50 nM

**Q.** For `CC(CC(=O)O)c1ccc(N2CCC[C@H]2C(C)(C)O)c(Nc2ccc(F)cc2)c1` (single isomer, unassigned) [Example 803], which IC50 is on record?
**A.** > 50 nM

**Q.** How did the IC50 turn out when `CCOc1ccc(CC(=O)Nc2cc(C(COC)CC(=O)O)cc(F)c2N(CC(C)C)C2CCCCC2)cc1` (single isomer, unassigned) [Example 1173, 3-(4-(cyclohexyl(isobutyl)amino)-3-(2-(4-ethoxyphenyl)acetamido)-5-fluorophenyl)-4-methoxybutanoic acid] was run?
**A.** < 50 nM

**Q.** Which IC50 does the source give for `CCC(CC(=O)O)c1cc(F)c(N(CC(C)C)CC(C)C)c(Nc2ccc3c(c2)OC(F)(F)O3)c1` (single isomer, unassigned) [Example 117, 3-(3-((2,2-difluorobenzo [d][1,3]dioxol-5-yl)amino)-4-(diisobutylamino)-5-fluorophenyl)pentanoic acid] here?
**A.** < 5 nM

**Q.** With `CCN(c1ccc(C(CC(=O)O)c2ccccc2)cc1Nc1ccc(C#N)cc1)C1CCOCC1` (single isomer, unassigned) [Example 591, 3-(3-((4-cyanophenyl)amino)-4-(ethyl(tetrahydro-2H-pyran-4-yl)amino)phenyl)-3-phenylpropanoic acid] as the compound, how does the IC50 read?
**A.** < 5 nM

**Q.** How did the IC50 turn out when `CCC(CC(=O)O)c1cc(F)c(N(CC(C)C)CC(C)C)c(Nc2ccc(F)cc2)c1` (single isomer, unassigned) [Example 116, 3-(4-(diisobutylamino)-3-fluoro-5-((4-fluorophenyl)amino)phenyl)pentanoic acid] was run?
**A.** < 5 nM

**Q.** For `CCC(CC(=O)O)c1ccc(N(CC(C)C)C2CCCCC2)c(Nc2ccc(F)c(F)c2)c1` (single isomer, unassigned) [Example 306, 3-(4-(cyclohexyl(isobutyl)amino)-3-((3,4-difluorophenyl)amino)phenyl)pentanoic acid], which IC50 is on record?
**A.** < 5 nM
